What all share (assay): Test A postemergence
Format in all cases: in vivo

Test [1] relates to ragweed (common ragweed, Ambrosia elatior). To be noted: Ambrosia artemisiifolia, post-emergence, 240 h; for pest or weed control at 125 g/ha: 125 g ai/ha; for pest or weed control at 500 g/ha: 500 g ai/ha. Summed up: (§1)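 Seeds sprayed preemergence with a directed soil spray, or plants at 2 to 10 cm height and one- to two-leaf stage sprayed postemergence, with test chemicals in a non-phytotoxic solvent mixture containing surfactant, in loam soil–sand blend. Injury rated visually against untreated controls after about 10 d in greenhouse, 0 (no effect) to 100 (complete control).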

For the next test, the system named is corn (Zea mays). The conditions noted are these: Zea mays, post-emergence, 240 h; for plant injury at 125 g/ha / Corn plant response rating (crop injury, 0 = no effect, 100 = complete kill) at 125 g/ha: 125 g ai/ha; for plant injury at 125 g/ha: read-out: Corn plant response rating (0 to 100 scale); for plant injury at 500 g/ha / Corn plant response rating (crop injury, 0 = no effect, 100 = complete kill) at 500 g/ha: 500 g ai/ha; for plant injury at 500 g/ha: 0 to 100 scale, 0 is no effect, 100 is complete control, read-out: Corn plant response rating; for Corn plant response rating (crop injury, 0 = no effect, 100 = complete kill) at 125 g/ha: visual injury after approximately 10 d; for Corn plant response rating (crop injury, 0 = no effect, 100 = complete kill) at 125 g/ha / Corn plant response rating (crop injury, 0 = no effect, 100 = complete kill) at 500 g/ha: 0 to 100 scale (0 no effect, 100 complete control); for Corn plant response rating (crop injury, 0 = no effect, 100 = complete kill) at 500 g/ha: visual injury, approx. 10 d. Summed up:
as §1

The test system of test [2] is blackgrass (Alopecurus myosuroides). To be noted: Alopecurus myosuroides, post-emergence, 240 h; for pest or weed control at 125 g/ha: 125 g ai/ha; for pest or weed control at 500 g/ha: 500 g ai/ha. Summed up:
as §1

The subject of test [3] is barnyardgrass (Echinochloa crus-galli). The conditions noted are these: Echinochloa crus-galli, post-emergence, 240 h; for pest or weed control at 125 g/ha: 125 g ai/ha; for pest or weed control at 500 g/ha: 500 g ai/ha. Summed up: as §1
The test system of test [4] is ryegrass, Italian (Italian ryegrass, Lolium multiflorum). To be noted: Lolium multiflorum, post-emergence, 240 h; for pest or weed control at 125 g/ha: 125 g ai/ha; for pest or weed control at 500 g/ha: 500 g ai/ha. Summed up:
as §1

Setting [5] is: postemergence, visual injury vs untreated controls after approx. 10 d, 0 = no effect, 100 = complete control, read-out: Ragweed plant response rating (0 to 100 scale).
[6] abbreviates: postemergence, 0 to 100 scale, 0 is no effect, 100 is complete control, read-out: Ragweed plant response rating.
Where [7] appears, read: postemergence, visual injury vs untreated controls after approx. 10 d, 0 = no effect, 100 = complete control.
[8] abbreviates: postemergence, visual injury vs untreated controls after approx. 10 d, 0 = no effect, 100 = complete control, read-out: Blackgrass plant response rating (0 to 100 scale).
Where [9] appears, read: postemergence, 0 to 100 scale, 0 is no effect, 100 is complete control, read-out: Blackgrass plant response rating.
Setting [10] is: postemergence, visual injury vs untreated controls after approx. 10 d, 0 = no effect, 100 = complete control, read-out: Barnyardgrass plant response rating (0 to 100 scale).
[11] abbreviates: postemergence, 0 to 100 scale, 0 is no effect, 100 is complete control, read-out: Barnyardgrass plant response rating.
Where [12] appears, read: postemergence, visual injury vs untreated controls after approx. 10 d, 0 = no effect, 100 = complete control, read-out: Ryegrass, Italian plant response rating (0 to 100 scale).
[13] abbreviates: postemergence, 0 to 100 scale, 0 is no effect, 100 is complete control, read-out: Ryegrass, Italian plant response rating.
[14] abbreviates: postemergence, visual injury after approximately 10 d, 0 to 100 scale (0 no effect, 100 complete control), read-out: Plant response rating, Ragweed.
[15] abbreviates: postemergence, visual injury after approximately 10 d, 0 to 100 scale (0 no effect, 100 complete control), read-out: Plant response rating, Blackgrass.
[16] abbreviates: postemergence, visual injury after approximately 10 d, 0 to 100 scale (0 no effect, 100 complete control), read-out: Plant response rating, Barnyardgrass.
[17] abbreviates: postemergence, visual injury after approximately 10 d, 0 to 100 scale (0 no effect, 100 complete control), read-out: Plant response rating, Ryegrass, Italian.
Setting [18] is: Postemergence, visual injury, 0 to 100 scale (0 no effect, 100 complete control), approx. 10 d, read-out: Plant response rating, Ragweed.
Where [19] appears, read: Postemergence, visual injury, 0 to 100 scale (0 no effect, 100 complete control), approx. 10 d, read-out: Plant response rating, Blackgrass.
Where [20] appears, read: Postemergence, visual injury, 0 to 100 scale (0 no effect, 100 complete control), approx. 10 d, read-out: Plant response rating, Barnyardgrass.
Setting [21] is: Postemergence, visual injury, 0 to 100 scale (0 no effect, 100 complete control), approx. 10 d, read-out: Plant response rating, Ryegrass, Italian.
[22] abbreviates: Postemergence, visual rating about 10 d after treatment, read-out: Ragweed plant response rating (0 to 100 scale).
Setting [23] is: Postemergence, visual rating about 10 d after treatment.
Setting [24] is: Postemergence, visual rating about 10 d after treatment, read-out: Blackgrass plant response rating (0 to 100 scale).
Setting [25] is: Postemergence, visual rating about 10 d after treatment, read-out: Barnyardgrass plant response rating (0 to 100 scale, 0 no effect, 100 complete control).
The mark [26] stands for this setting: Postemergence, visual rating about 10 d after treatment, read-out: Ryegrass, Italian plant response rating (0 to 100 scale).

Where two headings read alike, the source gives them in different places.

Turning to `Cc1cccc([C@H]2CN(C)C(=O)[C@@H]2C(=O)Nc2ccc(F)c(F)c2F)c1` [Compound 1231], the pest or weed control at 125 g/ha in test [1] (setting [5]) came to 0%; in test [2] (setting [8]) it was 0%; in test [3] (setting [10]) it was 80%; in test [4] (setting [12]) it was 40%. The pest or weed control at 500 g/ha in test [1] (setting [6]) was found to be 30%; in test [2] (setting [9]), 40%; in test [3] (setting [11]), 80%; in test [4] (setting [13]), 50%. The plant injury at 125 g/ha in the test with corn (Zea mays) (setting [7]) worked out at 70%. The plant injury at 500 g/ha in the test with corn (Zea mays) (postemergence) was found to be 80%.
As to `O=C1NC[C@H](c2ccc3c(c2)OCO3)[C@H]1C(=O)Nc1ccccc1F` [Compound 767], the pest or weed control at 125 g/ha in test [1] (setting [14]) came out at 0%; in test [2] (setting [15]) it was 0%; in test [3] (setting [16]) it was 70%; in test [4] (setting [17]), 0%. Moreover, in the test on corn (Zea mays) (postemergence), the Corn plant response rating (crop injury, 0 = no effect, 100 = complete kill) at 125 g/ha came out at 0%.
In the case of `CC(F)(F)c1cccc([C@H]2CNC(=O)[C@@H]2C(=O)Nc2ccccc2F)c1` [Compound 782], the pest or weed control at 125 g/ha in test [1] (setting [14]) turned out to be 0%; in test [2] (setting [15]) it was 70%; in test [3] (setting [16]) it was 90%; in test [4] (setting [17]), 40%. The Corn plant response rating (crop injury, 0 = no effect, 100 = complete kill) at 125 g/ha in the test with corn (Zea mays) (postemergence) was determined as 60%.
On to `CN1C[C@H](c2cccc(C(F)(F)F)c2)[C@@H](C(=O)Nc2ccc(F)cc2C(F)(F)F)C1=O` [Compound 1250], for which the pest or weed control at 125 g/ha amounted to 0% in test [1] (setting [5]), 20% in test [2] (setting [8]), 70% in test [3] (setting [10]) and 20% in test [4] (setting [12]). Further, the pest or weed control at 500 g/ha came out at 0% in test [1] (setting [18]), 60% in test [2] (setting [19]), 90% in test [3] (setting [20]) and 50% in test [4] (setting [21]). Also, the plant injury at 125 g/ha with corn (Zea mays) (setting [7]) is 40%. This molecule displayed a Corn plant response rating (crop injury, 0 = no effect, 100 = complete kill) at 500 g/ha in the test with corn (Zea mays) (Postemergence) of 70%.
As for `CN1C[C@H](c2ccc3c(c2)CCO3)[C@@H](C(=O)Nc2ccccc2F)C1=O` [Compound 1321], the pest or weed control at 125 g/ha in test [1] (setting [22]) is 0%; in test [2] (setting [24]) it was 30%; in test [3] (setting [25]), 90%; in test [4] (setting [26]), 20%. The pest or weed control at 500 g/ha is 20% in test [1] (setting [18]), 50% in test [2] (setting [19]), 90% in test [3] (setting [20]) and 50% in test [4] (setting [21]). Moreover, the plant injury at 125 g/ha in the test with corn (Zea mays) (setting [23]) was 40%. The molecule further gave a Corn plant response rating (crop injury, 0 = no effect, 100 = complete kill) at 500 g/ha with corn (Zea mays) (Postemergence) of 70%.
Consider `N#Cc1cc([C@H]2CNC(=O)[C@]2(O)C(=O)Nc2cccc(F)c2F)ccc1F` [Compound 1374], for which the pest or weed control at 125 g/ha in test [1] (setting [22]), in test [2] (setting [24]), in test [3] (setting [25]) and in test [4] (setting [26]) was 0% each time. Moreover, the pest or weed control at 500 g/ha in test [1] (setting [18]) stood at 0%; in test [2] (setting [19]) it was 0%; in test [3] (setting [20]), 50%; in test [4] (setting [21]), 0%. Also, the plant injury at 125 g/ha with corn (Zea mays) (setting [23]) was 0%. The molecule further returned a Corn plant response rating (crop injury, 0 = no effect, 100 = complete kill) at 500 g/ha in the test with corn (Zea mays) (Postemergence) of 0%.
On to `Cc1cc([C@H]2CN(C)C(=O)[C@@H]2C(=O)Nc2ccccc2F)no1` [Compound 1194], for which the pest or weed control at 125 g/ha in test [1] (setting [5]), in test [2] (setting [8]), in test [3] (setting [10]) and in test [4] (setting [12]) was 0% in each case. For the same molecule, the pest or weed control at 500 g/ha in test [1] (setting [6]) was found to be 0%; in test [2] (setting [9]), 0%; in test [3] (setting [11]), 20%; in test [4] (setting [13]), 0%. In addition, in the test on corn (Zea mays) (setting [7]), the plant injury at 125 g/ha turned out to be 0%. Further, in the test on corn (Zea mays) (postemergence), the plant injury at 500 g/ha stood at 0%.
Regarding `Cc1cc(F)cc([C@H]2CNC(=O)[C@@H]2C(=O)Nc2ccccc2S(C)(=O)=O)c1` [Compound 1307], the pest or weed control at 125 g/ha in test [1] (setting [22]) came out at 0%; in test [2] (setting [24]), 0%; in test [3] (setting [25]), 40%; in test [4] (setting [26]), 0%. Besides, the pest or weed control at 500 g/ha turned out to be 0% in test [1] (setting [18]), 0% in test [2] (setting [19]), 90% in test [3] (setting [20]) and 0% in test [4] (setting [21]). The plant injury at 125 g/ha in the test with corn (Zea mays) (setting [23]) stood at 0%. The same molecule showed a Corn plant response rating (crop injury, 0 = no effect, 100 = complete kill) at 500 g/ha with corn (Zea mays) (Postemergence) of 0%.
As for `CN1C[C@H](c2ccc(C(F)(F)F)cc2)[C@@H](C(=O)Nc2cccc(C#N)c2F)C1=O` [Compound 1381], the pest or weed control at 125 g/ha in test [1] (setting [22]) came out at 50%; in test [2] (setting [24]) it was 40%; in test [3] (setting [25]), 80%; in test [4] (setting [26]) it was 50%. The pest or weed control at 500 g/ha in test [1] (setting [18]) is 60%; in test [2] (setting [19]), 60%; in test [3] (setting [20]), 80%; in test [4] (setting [21]), 60%. In addition, the plant injury at 125 g/ha with corn (Zea mays) (setting [23]) came to 40%. In the test with corn (Zea mays) (Postemergence), the Corn plant response rating (crop injury, 0 = no effect, 100 = complete kill) at 500 g/ha turned out to be 60%.
For the molecule `CN1CC[C@H](c2ccc(C(F)(F)F)cc2)[C@@H](C(=O)Nc2cccc(Cl)c2F)C1=O` [Compound 1228], the pest or weed control at 125 g/ha in test [1] (setting [5]) came to 0%; in test [2] (setting [8]), 0%; in test [3] (setting [10]) it was 90%; in test [4] (setting [12]), 0%. Further, the pest or weed control at 500 g/ha was 0% in test [1] (setting [6]), 40% in test [2] (setting [9]), 90% in test [3] (setting [11]) and 30% in test [4] (setting [13]). In the test on corn (Zea mays) (setting [7]), the plant injury at 125 g/ha came to 20%. Further, in the test on corn (Zea mays) (postemergence), the plant injury at 500 g/ha amounted to 70%.
Regarding `CN1C[C@H](c2cc(F)cc(F)c2)[C@@H](C(=O)Nc2ccc(F)cc2C(F)(F)F)C1=O` [Compound 758], the pest or weed control at 125 g/ha in test [1] (setting [14]) was 0%; in test [2] (setting [15]), 0%; in test [3] (setting [16]) it was 70%; in test [4] (setting [17]), 0%. The molecule also yielded a Corn plant response rating (crop injury, 0 = no effect, 100 = complete kill) at 125 g/ha with corn (Zea mays) (postemergence) of 20%.
